This note sets out measurements from patent US20230082358A1, “3D PRINTED UV CROSSLINKING MASKS” (University of Maryland, College Park, priority 2021, published 2023).

Holding throughout (assay type): cell-based
The subject of experiment [1] is Human umbilical artery endothelial cells (HUAECs). Put plainly: HUAECs heparin release study, vWF immunostaining. To be noted: 48 h, p<0.05. As to the method:
HUVECs were seeded in 96-well plates at a density of 3,500 cells/well in 235 μL of Medium 200 (with LSGS). Cells were left overnight to adhere before medium was replaced with 200 μL of treatment medium, which contained 0.1, 1, 10, 100, or 1000 μg/mL heparin in Medium 200 (with LSGS), while the control was medium only. The medium was replaced daily for the duration of this study. Cells were fixed with 10% formalin and permeabilized. Wells were treated overnight with anti-von Willebrand factor antibody (1:200, 100 μL, ab9378, Abcam, Cambridge, Mass.). The secondary antibody used was Alexa Fluor 633 (4 μg/mL, Invitrogen, Carlsbad, Calif.). Then the cells were stained with DAPI solution (3 μg/mL in PBS) for 10 min. […] MATLAB was used to quantify the intensity of the red channel and count the cells in the blue channel for 3 images of each of the 3 wells (n=9) to calculate a ratio of vWF intensity to number of cells.
(§1) Human umbilical artery endothelial cells (HUAECs) (Sigma-Aldrich) were seeded in MesoEndo Cell Growth Medium (Sigma-Aldrich) with the appropriate heparin treatment. […] Immunostaining and quantification was completed as described above at 48 h. Tissue factor pathway inhibitor (TFPI) was quantified with DuoSet ELISA kit (R&D Systems, Minneapolis, Minn.) according to the manufacturer's protocol. […]

Experiment [2] has as its system Human umbilical vein endothelial cells (HUVECs). The experiment can be described thus: vWF immunostaining, HUVECs. Conditions: higher heparin concentrations; up to 120 h. The method, then: HUVECs were seeded in 96-well plates at a density of 3,500 cells/well in 235 μL of Medium 200 (with LSGS). Cells were left overnight to adhere before medium was replaced with 200 μL of treatment medium, which contained 0.1, 1, 10, 100, or 1000 μg/mL heparin in Medium 200 (with LSGS), while the control was medium only. The medium was replaced daily for the duration of this study. Cells were fixed with 10% formalin and permeabilized. Wells were treated overnight with anti-von Willebrand factor antibody (1:200, 100 μL, ab9378, Abcam, Cambridge, Mass.). The secondary antibody used was Alexa Fluor 633 (4 μg/mL, Invitrogen, Carlsbad, Calif.). Then the cells were stained with DAPI solution (3 μg/mL in PBS) for 10 min. Wells were imaged with an Eclipse Ti2 microscope (Nikon, Tokyo, Japan) under Cy5 excitation (625-650 nm) and emission (670 nm) and DAPI excitation (340-380 nm) and emission (435-485 nm). MATLAB was used to quantify the intensity of the red channel and count the cells in the blue channel for 3 images of each of the 3 wells (n=9) to calculate a ratio of vWF intensity to number of cells.

For experiment [3] the test system is unchanged. Put plainly: Scratch assay, HUVECs. Conditions: p<0.05. The method, then: HUVECs were treated in culture with treatment medium for 48 h. Treatment medium contained 0.1, 1, 10, 100, or 1000 μg/mL heparin in Medium 200 (with LSGS), while the control was medium only. The medium was replaced daily for the duration of this study. A 48-well plate was treated for 45 min with 200 μL of 0.1% wt/vol porcine gelatin (Sigma-Aldrich, St. Louis, Mo.) in DI water at 37° C. Cells were seeded in the well plate at a density of 100,000 cells/well in 800 μL of Medium 200 (with LSGS). Cells were left to adhere for 24 h before the medium was replaced. Scratches were made with a 200 μL pipette tip. Cells were imaged for 1 to 16 h after the scratches were made. ImageJ was used to quantify the gap distance in one image for each well (n=6). Gap closure (%) was reported as
where lo is the original gap length and lt is the gap length at a given time. The gap closure speed was defined as the slope of gap length curve with respect to time and was normalized to that of the 0 μg/mL group.

The test system is the same in experiment [4]. Put plainly: Cell metabolic activity assay (XTT), HUVECs. To be noted: 100 and 1000 μg/mL heparin; 24, 72 and 120 h; p<0.05. The method, then: (§2) Human umbilical vein endothelial cells (HUVECs) (ThermoFisher Scientific, Waltham, Mass.) were seeded in 48-well plates at a density of 10,000 cells/well in 1 mL of Medium 200 (with manufacturer's required Low Serum Growth Supplement LSGS, ThermoFisher Scientific). Cells were left overnight to adhere before medium was replaced with 1 mL of treatment medium, which contained 0.1, 1, 10, 100, or 1000 μg/mL heparin in Medium 200 (with LSGS), while the control was medium only. The medium was replaced daily for the duration of this study. The electron coupling and XTT labeling reagents from the Cell Proliferation Kit II (XTT) (Roche, Mannheim, Germany) were mixed according to the manufacturer's protocol and added to the cell medium in a ratio of 1 to 2. Cell medium was removed from the wells and the XTT solution was added. It was incubated for 4 h and 100 μL was extracted in triplicate (n=9). The absorbance was measured with a Spark Multimode Microplate Reader (Tecan, Männedorf, Switzerland). Net absorbance was calculated (A475-A650) for each sample and XTT fold change was calculated by normalizing the net absorbance to that at 4 h.
In general terms: Formazan colour is commonly taken as a measure of viable cells.

The test system of experiment [5] is Human umbilical artery endothelial cells (HUAECs). The experiment can be described thus: HUAECs heparin release study, TFPI ELISA. Conditions: for release of TFPI: after 48 h, comparable to 0 μg/mL, more than profiles A and B. As to the method:
Human umbilical artery endothelial cells (HUAECs) (Sigma-Aldrich) were seeded in MesoEndo Cell Growth Medium (Sigma-Aldrich) with the appropriate heparin treatment. For XTT and TFPI ELISA measurements, cells were seeded in a 24-well plate at a density of 150,000 cells/well in 1.8 mL of medium, while for immunostaining, cells were seeded in a 96-well plate at a density of 25,000 cells/well in 300 µL of medium. Treatment medium contained the heparin concentrations detailed in Table 1. One control group was medium only, while the other control group contained 30 μg/mL heparin, an estimate of heparin concentration during surgery. The medium was replaced at 8, 24, and 48 h. XTT was conducted as described above at 24 and 48 h. Immunostaining and quantification was completed as described above at 48 h. Tissue factor pathway inhibitor (TFPI) was quantified with DuoSet ELISA kit (R&D Systems, Minneapolis, Minn.) according to the manufacturer's protocol. The ladder and all samples were run in triplicate (n=9).
For orientation: An ELISA detects its analyte on a solid surface through an enzyme-linked reagent.

Experiment [6] has the same test system. The experiment can be described thus: HUAECs heparin release study, XTT. As to the method:
as §2, with “Cell medium was removed from the wells and the XTT solution was added. It was incubated for 4 h and 100 μL was extracted in triplicate (n=9).” left out
as §1

Experiment [7] relates to Human umbilical vein endothelial cells (HUVECs). The experiment can be described thus: Actin immunostaining / adhesion, HUVECs. To be noted: 72 h treatment. The method, then: (§3) HUVECs were treated in culture with treatment medium for 72 h. Treatment medium contained 0.1, 1, 10, 100, or 1000 μg/mL heparin in Medium 200 (with LSGS), while the control was medium only. The medium was replaced daily for the duration of this study. Cells were seeded in 96-well plate at a density of 30,000 cells/well in 200 μL of Medium 200 (with LSGS). Cells were left to adhere for 2 h before the medium was removed. Cells were fixed with 10% formalin and permeabilized. Wells were stained for 1 h with Alexa Fluor 488 Phalloidin (1:100, 100 μL, A12379, Invitrogen). Then the cells were stained with DAPI solution (3 μg/mL in PBS) for 10 min. Wells were imaged with an Eclipse Ti2 microscope under FITC excitation (465-495 nm) and emission (515-555 nm) and DAPI excitation (340-380 nm) and emission (435-485 nm). MATLAB was used to quantify the area of the green channel and count the cells in the blue channel for 3 images of each of the 3 wells (n=9) to calculate a ratio of F-actin area to number of cells.

The test system of experiment [8] is Human umbilical artery endothelial cells (HUAECs). The experiment can be described thus: HUAECs heparin release study, phalloidin (F-actin) staining. To be noted: heparin profiles A, B, C; 48 h; p>0.05. The method, then: as §3, §1

For heparin, the “vWF intensity, profile A versus profile C” value in experiment [1] is reported as “higher”. Besides, the “vWF expression (ratio of vWF intensity to number of cells)” value in experiment [2] was “upward trend”. For the same substance, the “gap closure over 16 h” value in experiment [3] (1, 10, 100 and 1000 μg/mL heparin) is reported as “significantly decreases”. Also, in experiment [3] (10, 100 and 1000 μg/mL heparin), the “gap closure speed (normalized to 0 μg/mL)” value was “significantly decreases”. Further, the “XTT metabolic activity compared to 0 μg/mL heparin” value in experiment [4] is on record as “significantly decreased”. In addition, the “release of TFPI” value in experiment [5] (30 μg/mL heparin) is listed as “highest release of TFPI”. Besides, the “tissue factor pathway inhibitor (TFPI) produced” value in experiment [5] (heparin profile A, after 24 and 48 h, p<0.05) is recorded as “significantly less”. Also, the “release of TFPI” value in experiment [5] (heparin profile C) was “highest release of TFPI”. Further, the “XTT metabolic activity of HUAECs at 48 h (normalized to 0 μg/mL)” value in experiment [6] (heparin profile A (246/122/118 μg/mL at 0-8/8-24/24-48 h)) is reported as “reduces”. Moreover, in experiment [6] (slower heparin profiles B and C), the “XTT metabolic activity and vWF expression of HUAECs” value is listed as “unaffected”. In addition, in experiment [7] (1000 μg/mL heparin, p<0.05), the “number of cells adhered after 2 h, compared to 0 μg/mL” value was “significantly lower” and the “ratio of F-actin area to number of cells, compared to 0 μg/mL” value is listed as “significantly lower”. Moreover, in experiment [7] (0.1 and 1 μg/mL heparin), the “number of cells adhered after 2 h” value is recorded as “support” and the “ratio of F-actin area to number of cells” value is recorded as “support”. Moreover, the “phalloidin (F-actin) area ratio” value in experiment [8] is on record as “not impacted”.
